Columns and labels:
[1] = molecular target: T1, Muscarinic acetylcholine receptor M2 (Homo sapiens, UniProt P08172); assay: Displacement of N-methyl [3H]-scopolamine from recombinant human muscarinic acetylcholine receptor M2 expressed in CHO cells after 2 hrs by liquid scintillation counting; type: cell-based; conditions: for pKi: cho
T1 sequence (P08172 whole entry): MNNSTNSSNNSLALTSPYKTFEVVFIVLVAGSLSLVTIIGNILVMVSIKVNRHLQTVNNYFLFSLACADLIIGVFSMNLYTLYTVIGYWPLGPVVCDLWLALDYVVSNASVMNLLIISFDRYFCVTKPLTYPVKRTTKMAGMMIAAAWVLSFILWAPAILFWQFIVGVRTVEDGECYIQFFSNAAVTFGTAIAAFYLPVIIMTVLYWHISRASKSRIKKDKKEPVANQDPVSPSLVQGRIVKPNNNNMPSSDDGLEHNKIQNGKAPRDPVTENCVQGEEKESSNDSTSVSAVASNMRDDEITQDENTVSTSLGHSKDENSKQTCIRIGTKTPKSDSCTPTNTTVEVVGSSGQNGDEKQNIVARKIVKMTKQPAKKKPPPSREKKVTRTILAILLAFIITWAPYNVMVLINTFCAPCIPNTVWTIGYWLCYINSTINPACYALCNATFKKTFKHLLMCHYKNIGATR

[2] = molecular target: T2, Growth hormone secretagogue receptor type 1 (Homo sapiens, UniProt Q92847); assay: Displacement of [125I]-ghrelin from human GHS-R1a expressed in tetracycline inducible HEK293 cells after 8 hrs by liquid scintillation counting; type: cell-based; conditions: for pKi: hek293
T2 sequence (Q92847 whole entry): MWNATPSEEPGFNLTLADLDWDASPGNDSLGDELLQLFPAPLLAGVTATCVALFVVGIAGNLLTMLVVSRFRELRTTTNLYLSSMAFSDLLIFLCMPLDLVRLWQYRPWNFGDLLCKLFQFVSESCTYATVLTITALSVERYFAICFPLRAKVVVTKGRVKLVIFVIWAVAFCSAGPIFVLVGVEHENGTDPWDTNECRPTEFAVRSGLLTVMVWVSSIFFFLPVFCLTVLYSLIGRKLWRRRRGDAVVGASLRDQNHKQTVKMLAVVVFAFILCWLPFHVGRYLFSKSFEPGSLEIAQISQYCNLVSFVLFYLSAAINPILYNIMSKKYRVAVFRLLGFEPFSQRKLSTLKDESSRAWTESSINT

[3] = test system: Rattus norvegicus; assay: Ex vivo receptor occupancy of GHS-R1a in Sprague-Dawley rat hypothalamus at 10 mg/kg, po measured at 1 hr by liquid scintillation counting in presence of [His [125I]]-Ghrelin; type: functional
[4] = molecular target: T2, Growth hormone secretagogue receptor type 1; assay: Inverse agonist activity at human GHS-R1a expressed in tetracycline inducible HEK293 cells incubated for 24 hrs prior to europium-labeled GTP addition measured after 90 mins by DELFIA assay; type: cell-based; parameters: Activity: concentration or dose not given beside the values
[5] = molecular target: T1, Muscarinic acetylcholine receptor M2; assay: Binding affinity to muscarinic acetylcholine receptor M2 (unknown origin)
[6] = test system: human MDR1 (P-gp); assay: Efflux ratio of permeability in MDCK cells expressing human MDR-1 gene; type: ADME, cell-based, Canis lupus familiaris; conditions: dog
[7] = Apparent intrinsic clearance in human liver microsomes; type: ADME, Microsome; conditions: read-out: CLH(app)

Structure (SMILES): COc1ccc(CC(=O)N2CCC3(CC2)CN(C2CCc4cc(-c5nccs5)ccc42)C3)nc1 (configuration not stated)
- Ki [1]: 871 nM
- IC50 [2]: 30.2 nM

Structure (SMILES): COc1ccc(CC(=O)N2CCC3(CC2)CN([C@@H]2CCc4cc(-c5ncccn5)ccc42)C3)nc1
- Occ [3]: 45%
- Ki [1]: 14500 nM
- Activity [4]: 42%
- pKb [4]: 7.6
- Ki [2]: 29.5 nM

Structure (SMILES): COc1ccc(CC(=O)N2CCC3(CC2)CN([C@@H]2CCc4cc(-c5ncccn5)ccc42)C3)cc1
- Occ [3]: 85%

Structure (SMILES): COc1ccc(CC(=O)N2CCC3(CC2)CN([C@@H](c2ccc(-c4ncccn4)cc2)C(C)C)C3)nc1
- Ki [1]: 47.9 nM
- pKi [2]: < 4.53

Structure (SMILES): COc1ccc(CC(=O)N2CCC3(CC2)CN(C2CCc4cc(-c5ncccn5)ccc42)C3)nc1 (racemic)
- Ki [1]: 1620 nM
- IC50 [2]: 37.2 nM

Structure (SMILES): COc1ccc(CC(=O)N2CCC3(CC2)CN([C@@H]2CCc4cc(-c5nccs5)ccc42)C3)nc1
- Occ [3]: 35%
- pKi [1]: < 4.25
- Activity [4]: 39%
- pKb [4]: 7.4
- Ki [2]: 3.98 nM

Structure (SMILES): COc1ccc(CC(=O)N2CCC3(CC2)CN([C@H](C)c2ccc(-c4ncccn4)cc2)C3)nc1
- Ki [1]: 20000 nM
- Ki [2]: 25100 nM

Structure (SMILES): COc1ccc(CC(=O)N2CCC3(CC2)CN([C@@H](C)c2ccc(-c4ncccn4)cc2)C3)nc1
- Ki [1]: 2240 nM
- Ki [2]: 1120 nM

Structure (SMILES): COc1ccc(CC(=O)N2CCC3(CC2)CN([C@@H]2CCc4cc(-n5nccn5)ccc42)C3)nc1
- Occ [3]: 50%
- pKi [1]: < 4.42
- Activity [4]: 42%
- pKb [4]: 7.57

Structure (SMILES): Cc1cn2cc(CC(=O)N3CCC4(CC3)CN(Cc3ccc(-n5nccn5)cc3Cl)C4)nc2s1
- Ki [5]: 269 nM

Structure (SMILES): COc1ccc(CC(=O)N2CCC3(CC2)CN([C@@H]2CCc4cc(-n5nccn5)ccc42)C3)cc1
- Occ [3]: 74%
- pKi [1]: < 4.26
- Activity [4]: 21%
- pKb [4]: 8.27
- Ki [2]: 7.41 nM

Structure (SMILES): COc1ccc(CC(=O)N2CCC3(CC2)CN([C@H](c2ccc(-c4ncccn4)cc2)C(C)C)C3)nc1
- Ki [1]: 912 nM
- pKi [2]: < 4.68

Structure (SMILES): Cc1ccc(CC(=O)N2CCC3(CC2)CN([C@@H]2CCc4cc(-c5ncccn5)ccc42)C3)nc1
- efflux ratio [6]: 2
- microsomal CLint [7]: 22 µL/min/mg
- Occ [3]: 0.2%
- pKi [1]: < 4.56
- Activity [4]: 21%
- pKb [4]: 6.98

Structure (SMILES): CCc1ccc(CC(=O)N2CCC3(CC2)CN([C@@H]2CCc4cc(-c5ncccn5)ccc42)C3)nc1
- Occ [3]: 10%
- Ki [1]: 28200 nM
- Activity [4]: 22%
- pKb [4]: 7.13
- Ki [2]: 15.5 nM

Structure (SMILES): COc1ccc(CC(=O)N2CCC3(CC2)CN([C@H]2CCc4cc(-c5ncccn5)ccc42)C3)nc1
- Ki [1]: 407 nM
- IC50 [2]: 1100 nM

Structure (SMILES): Cc1ccc(CC(=O)N2CCC3(CC2)CN([C@@H]2CCc4cc(-n5nccn5)ccc42)C3)nc1
- Occ [3]: 23%
- Ki [1]: 21900 nM
- Activity [4]: 40%
- pKb [4]: 7.23

Structure (SMILES): CCc1ccc(CC(=O)N2CCC3(CC2)CN([C@@H]2CCc4cc(-n5nccn5)ccc42)C3)nc1
- Occ [3]: 74%
- pKi [1]: < 4.59
- Activity [4]: 23%
- pKb [4]: 7.38

Structure (SMILES): COc1ccc(CC(=O)N2CCC3(CC2)CN(C(C)c2ccc(-c4ncccn4)cc2)C3)nc1 (configuration not stated)
- Ki [1]: 2400 nM
- Ki [2]: 1700 nM

Structure (SMILES): CCc1cnc(-c2ccc3c(c2)CC[C@H]3N2CC3(CCN(C(=O)Cc4ccc(OC)cn4)CC3)C2)nc1
- Occ [3]: 64%
- pKi [1]: < 4.17
- Activity [4]: 29%
- pKb [4]: 7.37

Structure (SMILES): COCC(c1ccc(-c2ncccn2)cc1)N1CC2(CCN(C(=O)Cc3ccc(OC)cn3)CC2)C1 (configuration not stated)
- Ki [1]: 7080 nM
- Ki [2]: 3630 nM

Structure (SMILES): COc1ccc(CC(=O)N2CCC3(CC2)CN([C@@H]2CCc4cc(-c5ncc(C)cn5)ccc42)C3)nc1
- Occ [3]: 5%
- pKi [1]: < 4.17
- Activity [4]: 40%
- pKb [4]: 7.07

Structure (SMILES): COc1ccc(CC(=O)N2CCC3(CC2)CN(Cc2ccc(-c4ncccn4)cc2Cl)C3)cc1
- Ki [1]: 1950 nM
- IC50 [2]: 15.8 nM

Structure (SMILES): COc1ccc(CC(=O)N2CCC3(CC2)CN([C@H]2CCc4cc(-c5nccs5)ccc42)C3)nc1
- Ki [1]: 1550 nM
- Ki [2]: 1380 nM

Structure (SMILES): COc1ccc(CC(=O)N2CCC3(CC2)CN(C(c2ccc(-c4ncccn4)cc2)C(C)C)C3)nc1 (configuration not stated)
- Ki [1]: 151 nM
- pKi [2]: < 4.52
